From PubChem BioAssay (NCI) come the findings set out here.

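1) Cells in 96-well plates. 2) Compound, 48 h, 5 concentrations. 3) Linear interpolation between surrounding doses. 4) Unreached endpoint = highest concentration. The concentration for full growth arrest is given as TGI.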 A value given as a limit tells only on which side of the number the result lay.

Test systems include HOP-62 NSCLC; HCT-15 colon; NCI-H460 lung; SF-539 CNS; CAKI-1 renal; NCI-H522 lung; SF-295 CNS; MALME-3M melanoma; SNB-75 CNS; OVCAR-5 ovarian; A549 NSCLC; NCI-H226 lung; K-562 leukemia; SR leukemia; T-47D breast; MDA-MB-435; HS 578T breast; BT-549 breast; DU-145 prostate.
What all share (test): NCI-60 cell line screen, 48 h

On to `CCCCCC#COC1CC(C)CC[C@@H]1C(C)C` (stereo partly specified), for which the TGI was over 100 µM in the experiment on HOP-62 NSCLC; over 100 µM in the experiment with HCT-15 colon; 55.4 µM in the experiment on NCI-H460 lung; over 100 µM in the experiment with SF-539 CNS; over 100 µM in the experiment on CAKI-1 renal; 52.2 µM with NCI-H522 lung. In addition, the TGI with SF-295 CNS, in the experiment on MALME-3M melanoma, in the experiment on SNB-75 CNS, in the experiment on OVCAR-5 ovarian, in the experiment on A549 NSCLC and with NCI-H226 lung was over 100 µM throughout. For the same compound, the TGI in the experiment on K-562 leukemia was over 100 µM.
As for `N#Cc1ccc(C(C2C(=O)NC(=O)NC2=O)C2C(=O)NC(=O)NC2=O)cc1`, the TGI with HOP-62 NSCLC, in the experiment with HCT-15 colon, with NCI-H460 lung, in the experiment with SF-539 CNS, in the experiment on CAKI-1 renal and with NCI-H522 lung was over 100 µM each time. In addition, the TGI in the experiment on SF-295 CNS, in the experiment on MALME-3M melanoma, in the experiment with SR leukemia, with OVCAR-5 ovarian, in the experiment with A549 NSCLC and in the experiment on NCI-H226 lung was over 100 µM each time. In the experiment with K-562 leukemia, this compound had a TGI of over 100 µM.
Take `O=C(Cc1ccccc1)N/N=C(/c1nc2ccc([N+](=O)[O-])cc2[nH]c1=O)C(O)c1ccc(C(O)/C(=N/NC(=O)Cc2ccccc2)c2nc3ccc([N+](=O)[O-])cc3[nH]c2=O)cc1` (stereo unspecified): the TGI with HOP-62 NSCLC is over 100 µM; in the experiment on HCT-15 colon, over 100 µM; in the experiment with SF-539 CNS, over 100 µM; in the experiment with CAKI-1 renal, over 100 µM; with NCI-H522 lung it was 94.6 µM; with SF-295 CNS, over 100 µM. Besides, the TGI in the experiment on MALME-3M melanoma, with SNB-75 CNS, with OVCAR-5 ovarian, with A549 NSCLC, in the experiment with NCI-H226 lung and in the experiment with K-562 leukemia was over 100 µM throughout.
Take `O=C1C=CC(=O)c2cc(Sc3ccccc3)c(=O)c(Sc3ccccc3)cc21`: the TGI in the experiment on HOP-62 NSCLC was over 100 µM; in the experiment with HCT-15 colon it was over 100 µM; in the experiment with NCI-H460 lung it was over 100 µM; in the experiment with SF-539 CNS, over 100 µM; in the experiment with CAKI-1 renal, over 100 µM; with NCI-H522 lung, 25.4 µM. The TGI in the experiment with SF-295 CNS was over 100 µM; in the experiment on SNB-75 CNS it was over 100 µM; in the experiment on SR leukemia, over 100 µM; in the experiment with A549 NSCLC it was over 100 µM; with NCI-H226 lung it was over 100 µM; in the experiment with K-562 leukemia, 61.9 µM.
For the compound `O=C(O)C1=CN(c2ccncc2)C(c2ccco2)=CC1c1ccccc1[N+](=O)[O-]` (stereo unspecified), the TGI with HOP-62 NSCLC is 32.9 µM; in the experiment with HCT-15 colon it was 4.75 µM; with T-47D breast it was 25 µM; with NCI-H460 lung, 36.3 µM; in the experiment on SF-539 CNS it was 10.3 µM; with MDA-MB-435 it was over 57.6 µM. The TGI was found to be 34.1 µM in the experiment with CAKI-1 renal; 25.3 µM in the experiment with NCI-H522 lung; 26.2 µM in the experiment with SF-295 CNS; 26.4 µM in the experiment with MALME-3M melanoma; 22.1 µM with SNB-75 CNS; 25.5 µM in the experiment with OVCAR-5 ovarian. The TGI in the experiment with A549 NSCLC was 34.2 µM; in the experiment with NCI-H226 lung, 38.3 µM; in the experiment on K-562 leukemia, over 100 µM; with HS 578T breast, 62.4 µM; in the experiment with BT-549 breast, 26.9 µM; in the experiment with DU-145 prostate it was 26.7 µM.
As for `O=P(CCOc1ccccc1OCCP(=O)(c1ccccc1)c1ccc2c(c1)OCCOCCOCCOCCO2)(c1ccccc1)c1ccc2c(c1)OCCOCCOCCOCCO2` (stereo unspecified), the TGI in the experiment with HOP-62 NSCLC, in the experiment with HCT-15 colon, with NCI-H460 lung, in the experiment on SF-539 CNS, in the experiment on NCI-H522 lung and with SF-295 CNS was over 100 µM in each case. In addition, the TGI with MALME-3M melanoma, with SNB-75 CNS, in the experiment on SR leukemia, in the experiment on OVCAR-5 ovarian, in the experiment on A549 NSCLC and in the experiment on NCI-H226 lung was over 100 µM each time. In the experiment on K-562 leukemia, the TGI was over 100 µM.
Regarding `COc1ccc2[nH]c3c4c(cc(-c5ccccc5)c3c2c1)C(=O)N(c1ccccc1)C4=O`, the TGI in the experiment on HOP-62 NSCLC is over 71.3 µM; in the experiment on HCT-15 colon, over 100 µM; with NCI-H460 lung it was over 100 µM; in the experiment with SF-539 CNS it was 16.5 µM; in the experiment with CAKI-1 renal it was over 77.7 µM; with NCI-H522 lung it was 61 µM. For the same compound, the TGI with SF-295 CNS was 33.7 µM; with MALME-3M melanoma, 65 µM; in the experiment on SNB-75 CNS it was 37.2 µM; in the experiment with SR leukemia it was 19.9 µM; in the experiment with OVCAR-5 ovarian it was over 100 µM; with A549 NSCLC, over 100 µM. Moreover, the TGI in the experiment with NCI-H226 lung and with K-562 leukemia was over 100 µM throughout.
As for `Cc1ccc(C(=O)N2CCCCC2)cc1N=NN(C)C`, the TGI in the experiment with HOP-62 NSCLC, with HCT-15 colon, in the experiment with NCI-H460 lung, with SF-539 CNS, in the experiment on CAKI-1 renal and in the experiment on NCI-H522 lung was over 100 µM in each case. Besides, the TGI in the experiment on SF-295 CNS, in the experiment with MALME-3M melanoma, in the experiment on SNB-75 CNS, in the experiment with SR leukemia, in the experiment on OVCAR-5 ovarian and in the experiment on A549 NSCLC was over 100 µM each time. Besides, the TGI in the experiment on NCI-H226 lung and in the experiment on K-562 leukemia was over 100 µM in each case.
As to `COC1=CC(=O)c2c(cc3c(c2O)-c2c(OC)cc4cc5c(c(O)c4c2OC(=O)CC(C)(O)C3)C(=O)CC(C)(O)C5)C1=O` (stereo unspecified), the TGI in the experiment with HOP-62 NSCLC was determined as 2.76 µM; in the experiment with HCT-15 colon, 4.36 µM; with NCI-H460 lung, 5.24 µM; in the experiment on SF-539 CNS it was 3.67 µM; with CAKI-1 renal it was 5.87 µM; with NCI-H522 lung, 2.67 µM. The TGI with SF-295 CNS turned out to be 3.48 µM; with MALME-3M melanoma, 4.04 µM; in the experiment on SNB-75 CNS, 3.51 µM; in the experiment on SR leukemia, 5.07 µM; in the experiment on OVCAR-5 ovarian, 4.27 µM; in the experiment on A549 NSCLC, 10.7 µM. For the same compound, the TGI was 4.08 µM with NCI-H226 lung and 12.6 µM with K-562 leukemia.
As to `CC(C)(CN1CCCCC1)C(=O)CC(SCCN)c1ccc(Cl)cc1` (stereo unspecified), the TGI is 12.8 µM in the experiment on HOP-62 NSCLC; 4.53 µM in the experiment with HCT-15 colon; 5.43 µM with NCI-H460 lung; 4.21 µM with SF-539 CNS; 5.85 µM with CAKI-1 renal; 4.8 µM in the experiment with NCI-H522 lung. Also, the TGI came to 12.4 µM in the experiment with SF-295 CNS; 11.6 µM in the experiment on MALME-3M melanoma; 5.59 µM in the experiment with SNB-75 CNS; 13.2 µM with OVCAR-5 ovarian; 10.2 µM with A549 NSCLC; 10.1 µM in the experiment on NCI-H226 lung. The compound further showed a TGI in the experiment on K-562 leukemia of over 100 µM.
